# B1: BATF3: nuclear basic leucine zipper transcription factor, SEQ ID NO: 10 (protein, listed as Homo sapiens)
# chain: MSQGLPAAGSVLQRSVAAPGNQPQPQPQQQSPEDDDRKVRRREKNRVAAQRSRKQTQKADKLHEEYESLEQENTMLRREIGKLTEELKHLTEALKEHEKMCPLLLCPMNFVPVPPRPDPVAGCLPR
# modifications: Human BATF3 (protein sequence)
# B2: IRF8: transcription factor of the interferon regulatory factor family, SEQ ID NO: 11 (protein, listed as Homo sapiens)
# chain: MCDRNGGRRLRQWLIEQIDSSMYPGLIWENEEKSMFRIPWKHAGKQDYNQEVDASIFKAWAVFKGKFKEGDKAEPATWKTRLRCALNKSPDFEEVTDRSQLDISEPYKVYRIVPEEEQKCKLGVATAGCVNEVTEMECGRSEIDELIKEPSVDDYMGMIKRSPSPPEACRSQLLPDWWAQQPSTGVPLVTGYTTYDAHHSAFSQMVISFYYGGKLVGQATTTCPEGCRLSLSQPGLPGTKLYGPEGLELVRFPPADAIPSERQRQVTRKLFGHLERGVLLHSSRQGVFVKRLCQGRVFCSGNAVVCKGRPNKLERDEVVVFDTSQFFRELQQFYNSQGRLPDGRVVLCFGEEFPDMAPLRSKLILVQIEQLYVRQLAEEAGKSCGAGSVMQAPEEPPPDQVFRMFPDICASHQRSFFRENQQITV
# modifications: Human IRF8 isoform 1 (protein sequence)
# Legend:
# LLC and B16 cells = test: Effect of valproic acid on reprogramming of mouse cancer cells; assay type: cell-based; conditions: for fold enhancement of CD45^+ MHC-II^+ tumour-APC generation: SFFV-PIB-eGFP; for fold enhancement of CD45^+ MHC-II^+ tumour-APC generation / CD45^+ MHC-II^+ tumour-APCs: day 9
# Description: (§1) Cancer cell lines were transduced with PIB-IRES-EGFP lentiviral particles or EGFP as control, and cultured in the presence or absence of VPA from reprogramming day 1 to day 4, and reprogramming efficiency was quantified by flow cytometry at reprogramming day 9 in live EGFP^+ cells according to the surface expression of CD45^+ and MHC-II or HLA-DR. Reprogrammed cells were then analysed as previously described.
# human cancer cell lines = test: Effect of valproic acid on cDC1 reprogramming of human cancer cell lines; assay type: cell-based; conditions: VPA from day 1 to day 4, day 9
# Description: as §1
# [1] = test system: human embryonic fibroblasts (HEF); test: cDC1 reprogramming efficiency of human embryonic fibroblasts, flow cytometry for CD45+HLA-DR+ cells at day 9; assay type: cell-based; conditions: HEF with Dox-inducible PIB
# Description: HEFs, HDFs and Clec9a-tdTomato MEFs were seeded at a density of 40,000 cells per well and MSCs at a density of 50,000 cells per well on 0.1% gelatin coated 6-well plates. On the following day, cells were incubated overnight with either a ratio of 1:1 TetO-PIB and M2rtTA, SFFV-PIB-GFP or SFFV-GFP lentiviral particles in media supplemented with 8 μg/ml polybrene. Cells were transduced overnight twice in consecutive days and media replaced in between. After the second transduction, media was replaced by normal growth media (day 0). When using TetO-PIB, media was supplemented with Dox (1 μg/ml). Media was changed every 2-3 days for the duration of cultures. When stated, media was supplemented with LPS (100 ng/ml, Enzo), Poly I:C (25 μg/ml, InvivoGen) and R848 (3 μg/ml, InvivoGen) overnight. Cytokines were added at day 2 and kept for the duration of cultures; For reprogramming in xeno-free conditions, MSCs were cultured in X-Vivo 15 (Lonza) after transduction and media changed every 2-3 days for the duration of cultures.
# For the analysis of surface marker expression, human and mouse cells were dissociated and incubated with antibodies diluted in PBS 5% FBS at 4° C. for 30 minutes in the presence of mouse or rat serum (1/100, GeneTex), for human and mouse cells respectively, to block unspecific binding. Cells were washed and resuspended in PBS 5% FBS and analyzed in BD FACSCanto II or BD LSRFortessa flow cytometers (BD Biosciences), unless stated otherwise. DAPI was used for dead cell exclusion. Flow cytometry data were analyzed using FlowJo software (FLOWJO, LLC, version 10.6.1). All flow cytometry analyses were performed in live single cell gates.
# Coding regions of ID2, TXNIP, ZFP36, PLEK, SUB1, JUNB, CREM, KLF4, MXD1, LITAF, IRF7, FOS, NMI, TFEC, SP110, IRF5, STAT2, BATF, ZNF267, IRF1, RELB and BATF2 were individually cloned in the pFUW-TetO plasmid. […] Reprogramming efficiency was evaluated by flow cytometry in HEFs 9 days after transcription factor overexpression.
# 17 human hematopoietic cytokines including inflammatory mediators (Table 3) were individually added to the culture media 2 days after PIB induction in HEFs, and reprogramming efficiency was measured at day 9. Changes in reprogramming efficiency were analysed using both single cytokines and combinations of two or three cytokines.
# The impact on reprogramming efficiency after a combination of cytokine treatment and SFFV-driven PIB induction was evaluated. The scPred system was used for integration with “natural” DCs. See previous Examples for experimental details.
# B16-OVA cells = test: T cell killing assay of B16-OVA target cells; assay type: cell-based, mouse; conditions: low (1:1) T cell to target ratio, 3 days co-culture
# Description: CD8^+ T cells from spleen of OT-I mice were enriched using a mouse CD8^+ T cell isolation kit (Miltenyi) according to manufacturer's protocol. 6-well untreated plates were coated with anti-CD3 and anti-CD28 at 2×10^−3 mg mL^−1 for 2 h at 37° C. and washed 3× before 1×10^6 T cells per mL were seeded in complete growth media (RPMI) supplemented with murine IL-2 (Peprotech, 100 U mL-1) and murine IL-12p70 (Peprotech, 2.5×10−3 mg mL-1). After 24 h of activation, T cells were re-seeded at 1×10^6 cells per mL in fresh complete RPMI supplemented with murine IL-2 for 48 h on new untreated plates to allow T cell expansion. MACS-sorted reprogrammed mOrange^+ B16-OVA cells or IFN-γ treated cells were seeded with non-fluorescent B16-OVA (mOrange−) in equal numbers, 24 h before co-culture with T cells. Expanded T cells were added in ratios of 0:1, 1:1, 5:1, 10:1 T cell to target cell. […] For flow cytometry analysis, cells were resuspended and stained for viability (DAPI) and anti-CD3 and measured at indicated time points post co-culture with T cells.
# chromatin = test: ChIP-seq of PU.1, IRF8 and BATF3 in HDFs 48 h after induction; assay type: binding, human; conditions: for chromatin binding, number of peaks: factors co-expressed, HDFs, 48 h; for positions shared between the three factors as share of total peaks of the factor: factors expressed together
# Description: TFs were delivered with a polycistronic lentiviral vector (pFUW-tetO-PIB) or individual vectors (pFUW-tetO-PU.1, pFUW-tetO-IRF8, or pFUW-tetO-BATF3) with pFUW-M2rtTA. ChIP was performed 48 hours after the addition of Dox.
# Chromatin in cultured cells was fixed by adding 1/10 volume of freshly-prepared formaldehyde solution [11% Formaldehyde (Sigma), 0.1M NaCl, 1 mM EDTA and 50 mM HEPES] to each cell suspension in complete DMEM. Tubes were left 15 minutes at room temperature with agitation. Fixation was stopped by adding 1/20 volume of […] Glycine solution (Sigma). After 5 minutes incubation, cells were centrifuged at 800 g for 10 min at 4° C. Cell pellets were resuspended in 10 ml chilled PBS-Igepal, 100 μl PMSF were added to each tube and centrifuged at 800 g for 10 minutes at 4° C. Cell pellets were snap-frozen on dry ice and stored at −80° C. Active Motif (Carlsbad, CA) prepared chromatin, performed ChIP, generated libraries and sequenced libraries. Briefly, chromatin was isolated by adding lysis buffer, followed by disruption with a Dounce homogenizer. Lysates were sonicated and the DNA sheared to an average length of 300-500 bp (Active Motif's EpiShear probe sonicator). Genomic DNA (Input) was prepared by treating aliquots of chromatin with RNase, proteinase K and heat for de-crosslinking, followed by clean up using solid phase reversible immobilization (SPRI) beads (Beckman Coulter) and quantitation by Clariostar (BMG Labtech). Extrapolation to the original chromatin volume allowed determination of total chromatin yield. 30 μg of chromatin was pre-cleared with protein A/G agarose beads (Invitrogen). Immunoprecipitations were performed with 4 μg of antibodies against human PU.1, IRF8 and BATF3 (rabbit anti-human PU.1, rabbit anti-human IRF8 or sheep anti-human BATF3). […] To confirm ChIP enrichment, quantitative PCR (QPCR) reactions were carried out in triplicate on specific genomic regions using SYBR Green Supermix (Bio-Rad). […] After a final PCR amplification step, the resulting DNA libraries were quantified and sequenced on Illumina's NextSeq 500 (75 nt reads, single end).
# ChIP-seq analysis was performed on the raw FASTQ files. […] For genome tracks, bigwig files were created from bam files with deeptools (https://deeptools.readthedocs.io/en/develop/) and explored using the UCSC Genome Browser. For Chromatin State Fold-Enrichment analysis, enrichment scores for genomic features, such as PU.1, IRF8 and BATF3 ChIP-seq peaks and histone marks were calculated using ChromHMM Overlap Enrichment (http://compbio.mit.edu/ChromHMM/). […] Enrichment scores were calculated as the ratio between the observed and the expected overlap for each feature and chromatin state based on their sizes and the size of the human genome. […]
molecule,measurement,setting,value
"CCCC(CCC)C(=O)O [VPA, valproic acid]",fold enhancement of CD45^+ MHC-II^+ tumour-APC generation,LLC and B16 cells; B16 cells,~5 fold
same,CD45^+ MHC-II^+ tumour-APCs,"LLC and B16 cells; B16 cells, 5.9±4.8% without VPA",29.9±19.3%
same,MHC-I in transduced cells,LLC and B16 cells; LLC and B16 cells transduced with PIB,upregulate MHC-I
same,fold enhancement of CD45^+ MHC-II^+ tumour-APC generation,LLC and B16 cells; LLC cells,~3 fold
same,CD45^+ MHC-II^+ tumour-APCs,"LLC and B16 cells; LLC cells, 15.8±4.79% without VPA",45.9±25.5%
same,antigen presentation function of tumour-APCs generated in the presence of VPA,"LLC and B16 cells; LLC-OVA and B16-OVA cells, OT-I CD8^+ T cells",presented endogenous antigens to OT-I CD8^+ T cells
same,reprogramming efficiency in human cancer cells,human cancer cell lines,increased reprogramming efficiency in all tested lines
IFN-γ: cytokine,fold increase in reprogramming efficiency versus condition without cytokines,[1],20 fold
same,CD45^+ HLA-DR^+ cell generation (hiDCs),"[1]; cytokine added 2 days after induction, 0.4%±0.2% without cytokines",7.9%±2.2%
same,target cells killed by T cells,B16-OVA cells,12.31±7.1%
B1,"chromatin binding, number of peaks",chromatin,"11,505 peaks"
same,positions shared between the three factors as share of total peaks of the factor,chromatin,47%
B2,"chromatin binding, number of peaks",chromatin,"18,962 peaks"
same,positions shared between the three factors as share of total peaks of the factor,chromatin,28%
